Key:
[1] = In Vivo Pharmacokinetics (cynomolgus monkey); set-up: species or system Cynomolgus monkeys; conditions: both sexes, plasma
Experimental: (§1) Test compounds were administered to male Sprague Dawley rats or male and female Cynomolgus monkeys intravenously or via oral gavage. For intravenous (IV) dosing, test compounds were dosed at 1 mg/kg using a formulation of 10% dimethylacetamide (DMAC), 10% propylene glycol (PG) in acidified saline via IV bolus for rat or 10 min IV infusion for monkey. For oral (PO) dosing, test compounds were dosed at 3.0 mg/kg using 5% DMAC in 0.5% methylcellulose in citrate buffer (PH˜2.5). Blood samples were collected at predose and various time points up to 24 hours postdose. All blood samples were collected using EDTA as the anticoagulant and centrifuged to obtain plasma samples. The plasma concentrations of test compounds were determined by LC-MS/MS methods. The measured plasma concentrations were used to calculate PK parameters by standard noncompartmental methods using Phoenix® WinNonlin software program (version 8.0, Pharsight Corporation) or similar software. In rats and monkeys, cassette dosing of test compounds were conducted to obtain preliminary PK parameters. In vivo pharmacokinetic experiments with male beagle dogs may be performed under the conditions described above.

[2] = biological target: CYP3A4 (Homo sapiens (Human), UniProt P08684); assay: Time Dependent Inhibition (TDI) of CYP; assay type: in vitro ADME; conditions: for TDI 3A4: Kobs, 30 min pre-incubation with NADPH; for TDI 3A4 / Kobs: human liver microsomes, 10 μM; for CYP function remaining / Kobs: time dependent inhibition of CYPs; for CYP function remaining: after pre-incubation with NADPH
Source text: Inhibition of P450 enzymes can be classified as either reversible or time-dependent inhibition (TDI). This in vitro assay is designed to detect an increase in CYP inhibition as a result of biotransformation and/or bioactivation (TDI). Potential mechanisms for this include the formation of a tight-binding, quasi-irreversible inhibitory metabolite complex or the inactivation of P450 enzymes by covalent adduct formation of metabolites. While this experiment employs a 10-fold dilution to diminish metabolite concentrations and therefore effects of reversible inhibition, it is possible (but not common) that a metabolite that is an extremely potent CYP inhibitor could result in a positive result.
The results are from a cocktail of CYP specific probe substrates at 4 times their Km concentrations for CYP2C9 (diclofenac), CYP2C19 (S-mephenytoin), CYP2D6 (bufuralol) and CYP3A4 (midazolam) using human liver microsomes (HLM). The HLMs were pre-incubated with test compound(s) at a concentration 10 μM for 30 min in the presence (+N) or absence (−N) of a NADPH regenerating system, diluted 10-fold, and incubated for 8 min in the presence of the substrate cocktail with the addition of a fresh aliquot of NADPH regenerating system. A calibration curve of metabolite standards was used to quantitatively measure the enzyme activity using LC-MS/MS. In addition, incubations with known time dependent inhibitors, tienilic aicd (CYP2C9), ticlopidine (CYP2C19), paroxetine (CYP2D6), and troleandomycin (CYP3A4), used as positive controls were pre-incubated 30 min with or without a NADPH regenerating system.
The percentage of control CYP2C9, CYP2C19, CYP2D6, and CYP3A4 activity remaining following pre-incubation of the compounds with NADPH is corrected for the corresponding control vehicle activity and then calculated based on 0 minutes as 100%. A linear regression plot of the natural log of % activity remaining versus time for each isozyme is used to calculate the slope. The −slope is equal to the rate of enzyme loss, or the Kobs. […] Examples 29-30 have Kobs from 0.005-0.02 indicating a medium to low potential for time dependent inhibition of CYPs corresponding to 70-90% CYP function remaining.

[3] = In Vivo Pharmacokinetics (rat); set-up: species or system Sprague Dawley rats; conditions: male, Sprague Dawley, plasma, PO 3.0 mg/kg
Experimental: as §1

[4] = In Vivo Pharmacokinetics (mouse); conditions: plasma, PO
[5] = PO 3.0 mg/kg, read-out: CYNO PO AUC

CYP3A4, sequence (P08684 whole entry): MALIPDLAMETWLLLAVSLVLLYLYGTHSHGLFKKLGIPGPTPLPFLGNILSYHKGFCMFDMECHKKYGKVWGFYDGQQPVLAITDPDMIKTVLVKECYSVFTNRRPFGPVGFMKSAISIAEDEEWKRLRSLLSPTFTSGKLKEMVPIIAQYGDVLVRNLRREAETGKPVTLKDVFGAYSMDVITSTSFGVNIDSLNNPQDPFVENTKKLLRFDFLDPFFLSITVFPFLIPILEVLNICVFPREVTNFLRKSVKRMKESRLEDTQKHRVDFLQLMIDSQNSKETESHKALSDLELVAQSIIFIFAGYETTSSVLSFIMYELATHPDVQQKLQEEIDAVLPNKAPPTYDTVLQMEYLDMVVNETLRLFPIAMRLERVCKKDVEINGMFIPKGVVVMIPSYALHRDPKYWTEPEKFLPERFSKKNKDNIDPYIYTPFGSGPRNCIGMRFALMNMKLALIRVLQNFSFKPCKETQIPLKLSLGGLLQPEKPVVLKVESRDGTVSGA

Row | Compound | AUC [1, 5] | TDI 3A4 [2] | AUC [3] | CYP function remaining [2] | Kobs [2] | AUC [4] | AUC ([1]; PO, 1 mg/kg)
1 | [2H]C([2H])([2H])N(Cc1ccc(-c2[nH]c3ncc4c(c3c2-c2ccc(OCCOC)cc2)n([C@@H]2CC[C@@H](NC(=O)OC)C2)c(=O)n4C([2H])([2H])[2H])cc1)C([2H])([2H])[2H] [Example 27, Methyl ((1R,3R)-3-(7-(4-((bis(methyl-d3)amino)methyl)phenyl)-8-(4-(2-methoxyethoxy)phenyl)-3-(methyl-d3)-2-oxo-3,6-dihydroimidazo[4,5-d]pyrrolo[2,3-b]pyridin-1(2H)-yl)cyclopentyl)carbamate] | > 1.5 µM·h | ⋄ (≤0.005) | 0.5 to 1.5 µM·h |  |  |  | 
2 | [2H]C([2H])([2H])n1c(=O)n([C@@H]2CC[C@@H](NC(=O)OC)C2)c2c3c(-c4ccc5c(cnn5C(C)C)c4)c(-c4ccc(CN(C)C)cc4)[nH]c3ncc21 [Example 26, Methyl ((1R,3R)-3-(7-(4-((dimethylamino)methyl)phenyl)-8-(1-isopropyl-1H-indazol-5-yl)-3-(methyl-d3)-2-oxo-3,6-dihydroimidazo[4,5-d]pyrrolo[2,3-b]pyridin-1(2H)-yl)cyclopentyl)carbamate] | 0.5 to 1.5 µM·h | ⋄ (≤0.005) | ≤ 0.5 µM·h |  |  |  | 
3 | [2H]C([2H])([2H])n1c(=O)n([C@@H]2CC[C@@H](NC(=O)OC)C2)c2c3c(-c4ccc5c(c4)COC5(C)C)c(-c4ccc(C(=O)N(C)C)cc4)[nH]c3ncc21 [Example 30, methyl ((1R,3R)-3-(8-(1,1-dimethyl-1,3-dihydroisobenzofuran-5-yl)-7-(4-(dimethylcarbamoyl)phenyl)-3-(methyl-d3)-2-oxo-3,6-dihydroimidazo[4,5-d]pyrrolo[2,3-b]pyridin-1(2H)-yl)cyclopentyl)carbamate] |  | ⋄⋄ (>0.005 to ≤0.02) | ≤ 0.5 µM·h |  |  |  | 
4 | COc1nn(C)cc1-c1[nH]c2ncc3c(c2c1-c1ccc2c(cnn2C)c1)n(C1CCOCC1)c(=O)n3C [Comparative Example A, reference compound] | ≤ 0.5 µM·h | ⋄⋄⋄⋄ (≥0.04) |  | about 30% | around 0.04 | > 1.5 µM·h | 
5 | COc1nn(C)cc1-c1[nH]c2ncc3c(c2c1-c1ccc2c(cnn2C)c1)n([C@H]1CC[C@@H](CC#N)CC1)c(=O)n3C [E, reference compound] |  |  |  |  |  | > 1.5 µM·h | 
6 | COC(=O)N[C@@H]1CC[C@@H](n2c(=O)n(C)c3cnc4[nH]c(-c5ccc(CN(C)C)cc5)c(-c5ccc(F)cc5)c4c32)C1 [Example 28, Methyl ((1R,3R)-3-(7-(4-((dimethylamino)methyl)phenyl)-8-(4-fluorophenyl)-3-methyl-2-oxo-3,6-dihydroimidazo[4,5-d]pyrrolo[2,3-b]pyridin-1(2H)-yl)cyclopentyl)carbamate] |  | ⋄ (≤0.005) | 0.5 to 1.5 µM·h |  |  |  | 
7 | [2H]C([2H])([2H])n1ncc2cc(-c3c(-c4cn(C)nc4OC)[nH]c4ncc5c(c34)n(C3CCOCC3)c(=O)n5C)ccc21 [Comparative Example B, reference compound] | ≤ 0.5 µM·h | ⋄⋄⋄⋄ (≥0.04) | > 1.5 µM·h | about 30% | around 0.04 |  | 
8 | [2H]C([2H])([2H])N(Cc1ccc(-c2[nH]c3ncc4c(c3c2-c2ccc3c(c2)CC(C)(C)O3)n([C@@H]2CC[C@@H](NC(=O)OC)C2)c(=O)n4C([2H])([2H])[2H])cc1)C([2H])([2H])[2H] [Example 25, Methyl ((1R,3R)-3-(7-(4-((bis(methyl-d3)amino)methyl)phenyl)-8-(2,2-dimethyl-2,3-dihydrobenzofuran-5-yl)-3-(methyl-d3)-2-oxo-3,6-dihydroimidazo[4,5-d]pyrrolo[2,3-b]pyridin-1(2H)-yl)cyclopentyl)carbamate] |  | ⋄ (≤0.005) | 0.5 to 1.5 µM·h |  |  |  | ≤ 0.5 µM·h
9 | [2H]C([2H])([2H])N(Cc1ccc(-c2[nH]c3ncc4c(c3c2-c2ccc3c(c2)COC3(C)C)n([C@@H]2CC[C@@H](NC(=O)OC)C2)c(=O)n4C([2H])([2H])[2H])cc1)C([2H])([2H])[2H] [Example 29, Methyl ((1R,3R)-3-(7-(4-((bis(methyl-d3)amino)methyl)phenyl)-8-(1,1-dimethyl-1,3-dihydroisobenzofuran-5-yl)-3-(methyl-d3)-2-oxo-3,6-dihydroimidazo[4,5-d]pyrrolo[2,3-b]pyridin-1(2H)-yl)cyclopentyl)carbamate] |  | ⋄⋄ (>0.005 to ≤0.02) | ≤ 0.5 µM·h |  |  |  | 

Source: patent publication US20250092044A1, “Kinase Inhibitors” (Incyte Corporation, priority 2023, published 2025)
